# Laboratory results reported in article PMC6797481, “Identification of an allosteric binding site on the human glycine transporter, GlyT2, for bioactive lipid analgesics” (eLife, 2019).
# Positions count from the first letter of the chain named.
# Experiments:
# GlyT2 F428A mutant = target: T1, GlyT2 F428A mutant (Homo sapiens, UniProt Q9Y345, F428A); assay: Glycine transport currents, two electrode voltage clamp, oocytes expressing GlyT2 F428A; assay type: cell-based; details: GlyT2 F428A; for % Max. inhibition: mean ± SEM
# T1 construct: expressed in transfected cells; host or cells: Xenopus laevis oocytes (cRNA injection)
# T1 sequence (Q9Y345 1-797 F428A): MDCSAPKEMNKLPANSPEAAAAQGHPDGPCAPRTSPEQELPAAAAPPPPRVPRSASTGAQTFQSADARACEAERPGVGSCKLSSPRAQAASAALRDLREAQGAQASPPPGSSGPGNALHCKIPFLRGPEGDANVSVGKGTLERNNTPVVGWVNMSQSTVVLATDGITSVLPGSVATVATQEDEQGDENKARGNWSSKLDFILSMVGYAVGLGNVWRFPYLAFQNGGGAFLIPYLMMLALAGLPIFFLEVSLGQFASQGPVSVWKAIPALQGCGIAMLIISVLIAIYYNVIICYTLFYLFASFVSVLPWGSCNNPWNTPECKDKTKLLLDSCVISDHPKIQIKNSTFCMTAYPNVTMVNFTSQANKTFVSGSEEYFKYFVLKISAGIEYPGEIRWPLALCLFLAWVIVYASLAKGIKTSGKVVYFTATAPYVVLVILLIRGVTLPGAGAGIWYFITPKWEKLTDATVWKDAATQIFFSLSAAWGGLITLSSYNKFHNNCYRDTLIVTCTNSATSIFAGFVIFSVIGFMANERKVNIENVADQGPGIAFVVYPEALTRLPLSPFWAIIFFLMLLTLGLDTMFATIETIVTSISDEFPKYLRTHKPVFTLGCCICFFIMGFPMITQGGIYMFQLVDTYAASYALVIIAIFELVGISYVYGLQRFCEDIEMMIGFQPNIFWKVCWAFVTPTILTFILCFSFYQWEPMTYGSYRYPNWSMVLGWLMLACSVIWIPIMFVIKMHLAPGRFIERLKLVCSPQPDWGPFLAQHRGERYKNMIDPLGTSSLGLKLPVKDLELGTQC
# Experimental: (§1) Glycine was first applied to establish maximal transport current.
# (§2) Compounds were tested for inhibition of glycine transport on Xenopus laevis oocytes expressing mutant GlyT1 and GlyT2 transporters. n values are in brackets, with measurements taken from at least 2 batches of oocytes.
# GlyT1 WT = test system: GlyT1 WT; design: method as in earlier work; details: previously published; cited from earlier work
# GlyT2 WT = target: T2, GlyT2 WT (Homo sapiens, UniProt Q9Y345); design: expressed in transfected cells; host or cells: Xenopus laevis oocytes (cRNA injection); details: WT GlyT2, previously published, cited from earlier work; for IC50: mean (95% CI); for GlyT2 % max. inhibition: mean ± SEM
# T2 sequence (Q9Y345 1-797): T1 sequence (Q9Y345 1-797 F428A) with A428F
# GlyT2 Y550L mutant = target: T3, GlyT2 Y550L mutant (Homo sapiens, UniProt Q9Y345, Y550L); assay: Glycine transport currents, two electrode voltage clamp, oocytes expressing GlyT2 Y550L; assay type: cell-based; details: GlyT2 Y550L; for % Max. inhibition: mean ± SEM
# T3 construct: expressed in transfected cells; host or cells: Xenopus laevis oocytes (cRNA injection)
# T3 sequence (Q9Y345 1-797 Y550L): T1 sequence (Q9Y345 1-797 F428A) with A428F, Y550L
# Experimental: as §1, §2
SMILES,IC50 (GlyT2 F428A mutant) [µM],% Max. inhibition (GlyT2 F428A mutant),IC50 (GlyT1 WT) [µM],IC50 (GlyT2 WT) [µM],GlyT2 % max. inhibition (GlyT2 WT) [%],IC50 (GlyT2 F428A mutant; mean (95% CI)) [µM],% Max. inhibition (GlyT2 Y550L mutant),IC50 (GlyT2 Y550L mutant; greater than maximum concentration applied (footnote a)) [µM],% Max. inhibition (% inhibition at the highest concentration of inhibitor used) (GlyT2 F428A mutant; footnote b)
CCCCCCCC=CCCCCCCCCC(=O)NCC(=O)O [C18 ω8 Glycine],> 10,13.2 ± 2.7 (p=0.0001) %,> 10,0.32,61.3 ± 1.7,–,–,–,–
CCCCCCCCCCC=CCCCC(=O)NCC(=O)O [C16 ω11 Glycine],–,103 ± 7.7 (p=0.6075) %,> 10,3.4,97.9 ± 2.3,4.81,–,–,–
CCCCCCCC/C=C\CCCCCCCC(=O)N[C@@H](CC(C)C)C(=O)O [oleoyl l-Leucine],–,–,> 10,–,72.2 ± 3.8,–,41.1 ± 6.2 (p=0.0115) %,–,–
CCCCCCCC/C=C\CCCCCCCC(=O)N[C@@H](CCCNC(=N)N)C(=O)O [oleoyl l-Arginine],–,–,> 3,0.0479,87.2 ± 3.7,–,9.3 ± 1.4 (p=0.0001) %,> 3,–
CCCCC=CCCCCCCCC(=O)NCC(=O)O [C14 ω5 Glycine],> 30,–,> 10,9.2,100 ± 7.2,–,–,–,33.4 ± 3.0^b (p=0.0007) %
CCCCCCCCCC=CCCCCCCC(=O)NCC(=O)O [C18 ω10 Glycine],–,25.3 ± 5.3 (p=0.0092) %,> 10,0.34,52.4 ± 2.2,0.776,–,–,–
